The values below come from US12213993B2, “Coated medicinal clay compositions, pharmaceutical compositions, and delivery of cation sources and methods of use thereof” (priority 2021, dated 2025).

For series [1] the following is noted: ion pair with chloride; cited from earlier work.
A short description of series [2]: Calculation of chloride binding by cations of clay/silver wound dressing in wound exudate. The series is classed as physicochemical. As to conditions: without the chelation of chloride provided by the medicinal clay. From the text: Medicinal clay in a pharmaceutical composition was applied to an exemplary wound dressing, which incorporated an additional therapeutic cation, silver. Wound exudate is known to contain anions, which can interfere with the medicinal qualities of the medicinal clay and additional therapeutic agents when the medicinal clay comes into contact with the moisture of the wound exudate (a water source). Wound exudate is variable patient to patient, so an average amount of 101 mEq/L chloride anions was used. The medicinal clay of Example 1 was analyzed for cations, which may interact with the chloride in wound exudate. Table 5 describes an approximate amount of ions present the exemplary clay composition of the wound dressing (4×4 inch pad), silver added into the wound dressing for delivery with the clay, and wound exudate, as well as the amount of each in the exemplary wound dressing and wound exudate (grams). […] A skilled artisan will appreciate from the disclosure of the calculations that such a minimum effective amount can vary based on an exudate sample. Accordingly, the calculated atoms and weight (g) in Table 5 can have a variation of about ±30%, ±25%, ±20%, ±15%, or ±10%. The exemplary wound dressings comprise from about 0.1 to about 2.5 grams of the clay composition, preferably from about 0.2 to about 0.8 grams of the clay composition. […]

As to `[Cl][Ag]` [AgCl], the “Lattice Energy” value in series [1] was 187 kcal/mol. For `[Cl][Al]([Cl])[Cl]` [AlCl3], the “Lattice Energy” value in series [1] was 1228 kcal/mol.

In the case of `[Ca+2].[Cl-].[Cl-]` [CaCl2], the “Lattice Energy” value in series [1] is 542.1 kcal/mol. For the compound `[Cl][Fe][Cl]` [FeCl2], the “Lattice Energy” value in series [1] is 614 kcal/mol. As for `[Cl][Fe]([Cl])[Cl]` [FeCl3], the “Lattice Energy” value in series [1] is 1282 kcal/mol. For `[Cl-].[K+]` [KCl], the “Lattice Energy” value in series [1] was 168 kcal/mol. On to `[Cl-].[Cl-].[Mg+2]` [MgCl2], for which the “Lattice Energy” value in series [1] is 592 kcal/mol. Consider `[Cl][Mn][Cl]` [MnCl2], for which the “Lattice Energy” value in series [1] is 599.9 kcal/mol.

Take `[Cl-].[Na+]` [NaCl]: in series [1], the “Lattice Energy” value was 184 kcal/mol. For the compound `[Ag+]` [silver], the “silver in the dressing that chloride could bind prior to release” value in series [2] is 72%.
